Results published in ChEMBL document CHEMBL5696443 (Clin Cancer Res, 2016).
The source made the active and inactive calls. The calls are words filed in the database; no cut-off is given here.

Assays:
[1] = biological target: Casein kinase I isoform epsilon (Homo sapiens) (UniProt P49674); experiment: Inhibition of human CK1epsilon at 1 uM using KRRRAL[pS]VASLPGL as substrate in presence of [gamma33P]-ATP by HotSpot assay relative to control
[2] = biological target: Tyrosine-protein kinase Fes/Fps (Homo sapiens, UniProt P07332); experiment: Inhibition of human FES using poly (Glu, Tyr)4:1 as substrate in presence of [gamma33P]-ATP by HotSpot assay
Sequence of Tyrosine-protein kinase Fes/Fps (P07332 whole entry): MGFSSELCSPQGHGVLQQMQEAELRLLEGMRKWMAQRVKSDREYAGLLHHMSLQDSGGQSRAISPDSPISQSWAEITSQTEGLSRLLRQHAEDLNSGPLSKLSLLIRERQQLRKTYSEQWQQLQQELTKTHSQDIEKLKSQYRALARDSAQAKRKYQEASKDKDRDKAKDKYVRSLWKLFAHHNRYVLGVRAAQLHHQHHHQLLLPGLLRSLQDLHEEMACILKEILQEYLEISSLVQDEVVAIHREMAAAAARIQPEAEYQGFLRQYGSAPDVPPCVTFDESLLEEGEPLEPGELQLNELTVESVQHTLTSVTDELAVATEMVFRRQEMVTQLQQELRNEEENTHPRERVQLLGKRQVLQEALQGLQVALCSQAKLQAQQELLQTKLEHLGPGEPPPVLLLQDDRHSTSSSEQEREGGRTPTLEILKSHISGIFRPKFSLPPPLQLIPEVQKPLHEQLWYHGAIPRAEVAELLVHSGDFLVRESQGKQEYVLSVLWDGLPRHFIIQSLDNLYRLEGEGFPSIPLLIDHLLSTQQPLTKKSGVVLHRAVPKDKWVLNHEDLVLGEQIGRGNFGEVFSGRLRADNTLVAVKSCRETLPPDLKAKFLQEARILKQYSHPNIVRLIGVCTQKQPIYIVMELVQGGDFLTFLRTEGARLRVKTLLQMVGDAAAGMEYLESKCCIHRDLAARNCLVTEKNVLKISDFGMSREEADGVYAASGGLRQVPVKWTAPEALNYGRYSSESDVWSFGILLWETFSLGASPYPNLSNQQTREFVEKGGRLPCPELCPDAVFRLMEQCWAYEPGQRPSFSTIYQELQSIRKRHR

[3] = biological target: Testis-specific serine/threonine-protein kinase 1 (Homo sapiens, UniProt Q9BXA7); experiment: Inhibition of human TSSK1 using KKKVSRSGLYRSPSMPENLNRPR as substrate in presence of [gamma33P]-ATP by HotSpot assay
[4] = biological target: Tyrosine-protein kinase ABL1 (Homo sapiens, UniProt P00519, T315I); experiment: Inhibition of human ABL1 T315I mutant using EAIYAAPFAKKK as substrate in presence of [gamma33P]-ATP by HotSpot assay
Aurora kinase B = Aurora kinase B (Homo sapiens, UniProt Q96GD4); experiment: Inhibition of human AURKB using H-LRRASLG as substrate in presence of [gamma33P]-ATP by HotSpot assay
Sequence of Aurora kinase B (Q96GD4 whole entry): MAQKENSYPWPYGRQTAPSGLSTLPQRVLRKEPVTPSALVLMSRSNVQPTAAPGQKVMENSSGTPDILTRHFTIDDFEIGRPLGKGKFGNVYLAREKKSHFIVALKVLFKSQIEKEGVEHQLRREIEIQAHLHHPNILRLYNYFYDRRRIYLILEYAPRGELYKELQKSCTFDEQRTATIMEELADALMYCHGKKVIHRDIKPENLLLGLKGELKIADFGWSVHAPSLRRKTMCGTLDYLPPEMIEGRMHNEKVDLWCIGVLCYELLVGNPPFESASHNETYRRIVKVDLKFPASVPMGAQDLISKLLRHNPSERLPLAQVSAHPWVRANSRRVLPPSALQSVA

Ephrin type-A receptor 1 = Ephrin type-A receptor 1 (Homo sapiens, UniProt P21709); experiment: Inhibition of human EPHA1 using poly (Glu, Tyr)4:1 as substrate in presence of [gamma33P]-ATP by HotSpot assay
Sequence of Ephrin type-A receptor 1 (P21709 whole entry): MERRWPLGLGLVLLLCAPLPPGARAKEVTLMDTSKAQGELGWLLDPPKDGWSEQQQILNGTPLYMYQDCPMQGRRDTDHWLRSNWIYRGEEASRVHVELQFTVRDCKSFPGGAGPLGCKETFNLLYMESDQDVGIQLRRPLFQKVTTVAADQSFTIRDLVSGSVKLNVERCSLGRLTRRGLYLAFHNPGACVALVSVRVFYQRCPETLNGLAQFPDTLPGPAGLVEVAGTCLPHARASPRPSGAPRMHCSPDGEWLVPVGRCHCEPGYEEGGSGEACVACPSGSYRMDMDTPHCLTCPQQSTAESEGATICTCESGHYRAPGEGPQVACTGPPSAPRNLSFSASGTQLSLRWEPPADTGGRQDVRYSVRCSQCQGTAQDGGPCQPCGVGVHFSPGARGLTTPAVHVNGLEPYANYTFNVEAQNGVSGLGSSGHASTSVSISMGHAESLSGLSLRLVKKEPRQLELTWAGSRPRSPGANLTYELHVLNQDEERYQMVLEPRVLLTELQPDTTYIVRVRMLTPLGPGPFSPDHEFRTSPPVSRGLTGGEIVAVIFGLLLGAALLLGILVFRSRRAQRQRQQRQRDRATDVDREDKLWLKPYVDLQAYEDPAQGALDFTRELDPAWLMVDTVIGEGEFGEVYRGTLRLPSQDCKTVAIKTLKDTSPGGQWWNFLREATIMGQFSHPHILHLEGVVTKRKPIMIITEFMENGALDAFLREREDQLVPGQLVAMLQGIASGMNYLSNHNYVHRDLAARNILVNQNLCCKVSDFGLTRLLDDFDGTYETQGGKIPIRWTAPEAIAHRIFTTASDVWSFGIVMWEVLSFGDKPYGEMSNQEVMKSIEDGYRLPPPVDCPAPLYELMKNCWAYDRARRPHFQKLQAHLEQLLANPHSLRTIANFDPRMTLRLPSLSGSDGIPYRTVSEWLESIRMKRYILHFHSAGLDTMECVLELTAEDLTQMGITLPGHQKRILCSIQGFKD

[5] = biological target: Calcium/calmodulin-dependent protein kinase type II subunit alpha (Homo sapiens) (UniProt Q9UQM7); experiment: Inhibition of human CAMK2A at 1 uM using KKALRRQETVDAL as substrate in presence of [gamma33P]-ATP by HotSpot assay relative to control
[6] = biological target: CDK7/Cyclin H/MNAT1 (Homo sapiens) (UniProt P51946+P50613+P51948); experiment: Inhibition of human CDK7/CyclinH/MAT1 at 1 uM using MBP as substrate in presence of [gamma33P]-ATP by HotSpot assay relative to control; assay type: protein-complex assay
[7] = biological target: Casein kinase II subunit alpha (Homo sapiens) (UniProt P68400); experiment: Inhibition of human CK2a at 1 uM using RRRDDDSDDD as substrate in presence of [gamma33P]-ATP by HotSpot assay relative to control
Sequence of Casein kinase II subunit alpha (Homo sapiens) (P68400 whole entry, looked up, the tested form may be a part): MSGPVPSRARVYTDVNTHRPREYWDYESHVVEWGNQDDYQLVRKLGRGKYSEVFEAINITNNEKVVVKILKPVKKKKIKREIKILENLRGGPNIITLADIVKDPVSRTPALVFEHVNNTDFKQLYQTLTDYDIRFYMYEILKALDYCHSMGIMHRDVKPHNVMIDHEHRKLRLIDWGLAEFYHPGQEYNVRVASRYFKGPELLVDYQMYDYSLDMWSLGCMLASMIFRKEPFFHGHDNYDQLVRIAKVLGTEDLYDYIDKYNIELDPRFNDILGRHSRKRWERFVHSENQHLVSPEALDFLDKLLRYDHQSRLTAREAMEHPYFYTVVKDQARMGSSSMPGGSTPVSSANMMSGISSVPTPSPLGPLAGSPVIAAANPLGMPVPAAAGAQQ

[8] = biological target: Discoidin domain-containing receptor 2 (Homo sapiens) (UniProt Q16832); experiment: Inhibition of human DDR2 at 1 uM using KKSRGDYMTMQIG as substrate in presence of [gamma33P]-ATP by HotSpot assay relative to control
Sequence of Discoidin domain-containing receptor 2 (Homo sapiens) (Q16832 whole entry, the tested form may be a part): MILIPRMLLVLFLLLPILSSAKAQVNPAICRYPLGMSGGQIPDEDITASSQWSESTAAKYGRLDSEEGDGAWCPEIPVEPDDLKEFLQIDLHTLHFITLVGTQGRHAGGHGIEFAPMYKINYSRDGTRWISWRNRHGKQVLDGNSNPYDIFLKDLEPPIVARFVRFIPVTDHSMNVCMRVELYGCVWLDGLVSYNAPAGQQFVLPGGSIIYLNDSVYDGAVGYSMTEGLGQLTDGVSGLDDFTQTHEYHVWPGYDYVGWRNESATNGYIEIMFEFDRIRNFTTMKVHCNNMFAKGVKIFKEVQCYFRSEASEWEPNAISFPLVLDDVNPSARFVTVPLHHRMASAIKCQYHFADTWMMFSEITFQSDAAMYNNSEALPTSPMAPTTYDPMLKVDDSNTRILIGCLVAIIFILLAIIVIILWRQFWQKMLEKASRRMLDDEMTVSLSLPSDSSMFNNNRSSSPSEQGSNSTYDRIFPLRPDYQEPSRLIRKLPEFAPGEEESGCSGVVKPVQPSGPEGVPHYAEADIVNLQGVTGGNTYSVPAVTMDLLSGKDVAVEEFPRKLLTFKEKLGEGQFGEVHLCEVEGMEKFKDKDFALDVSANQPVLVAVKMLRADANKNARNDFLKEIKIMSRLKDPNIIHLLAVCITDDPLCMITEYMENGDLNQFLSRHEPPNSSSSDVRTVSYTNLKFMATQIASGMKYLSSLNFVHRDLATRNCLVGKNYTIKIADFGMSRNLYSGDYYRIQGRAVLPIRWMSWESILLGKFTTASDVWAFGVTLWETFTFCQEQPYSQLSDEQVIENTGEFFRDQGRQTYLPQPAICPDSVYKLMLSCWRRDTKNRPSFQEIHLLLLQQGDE

[9] = biological target: Dual specificity tyrosine-phosphorylation-regulated kinase 4 (Homo sapiens) (UniProt Q9NR20); experiment: Inhibition of human DYRK4 at 1 uM using RRRFRPASPLRGPPK as substrate in presence of [gamma33P]-ATP by HotSpot assay relative to control
[10] = biological target: Ephrin type-A receptor 8 (Homo sapiens) (UniProt P29322); experiment: Inhibition of human EPHA8 at 1 uM using poly (Glu, Tyr)4:1 as substrate in presence of [gamma33P]-ATP by HotSpot assay relative to control
[11] = biological target: Tyrosine-protein kinase ITK/TSK (Homo sapiens) (UniProt Q08881); experiment: Inhibition of human ITK at 1 uM using MBP as substrate in presence of [gamma33P]-ATP by HotSpot assay relative to control
Sequence of Tyrosine-protein kinase ITK/TSK (Homo sapiens) (Q08881 whole entry): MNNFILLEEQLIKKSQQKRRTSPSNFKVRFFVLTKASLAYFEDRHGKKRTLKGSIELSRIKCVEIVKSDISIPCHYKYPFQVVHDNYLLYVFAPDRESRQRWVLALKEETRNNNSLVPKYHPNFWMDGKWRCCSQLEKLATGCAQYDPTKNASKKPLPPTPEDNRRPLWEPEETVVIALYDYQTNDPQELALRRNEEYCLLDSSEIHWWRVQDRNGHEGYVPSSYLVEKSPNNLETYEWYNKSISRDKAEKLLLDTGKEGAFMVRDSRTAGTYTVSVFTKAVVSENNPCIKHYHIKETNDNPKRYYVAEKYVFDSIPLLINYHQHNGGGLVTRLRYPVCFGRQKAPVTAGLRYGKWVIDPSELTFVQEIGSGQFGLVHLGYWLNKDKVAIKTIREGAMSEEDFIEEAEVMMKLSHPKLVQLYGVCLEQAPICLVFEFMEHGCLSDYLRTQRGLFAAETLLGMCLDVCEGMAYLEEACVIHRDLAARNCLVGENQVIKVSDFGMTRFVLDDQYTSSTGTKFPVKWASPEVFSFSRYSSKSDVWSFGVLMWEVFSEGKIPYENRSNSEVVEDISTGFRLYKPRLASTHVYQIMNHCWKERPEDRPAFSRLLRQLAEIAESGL

[12] = biological target: Mitogen-activated protein kinase 14 (Homo sapiens) (UniProt Q16539); experiment: Inhibition of human MAPK14 at 1 uM using MBP as substrate in presence of [gamma33P]-ATP by HotSpot assay relative to control
Sequence of Mitogen-activated protein kinase 14 (Homo sapiens) (Q16539 whole entry): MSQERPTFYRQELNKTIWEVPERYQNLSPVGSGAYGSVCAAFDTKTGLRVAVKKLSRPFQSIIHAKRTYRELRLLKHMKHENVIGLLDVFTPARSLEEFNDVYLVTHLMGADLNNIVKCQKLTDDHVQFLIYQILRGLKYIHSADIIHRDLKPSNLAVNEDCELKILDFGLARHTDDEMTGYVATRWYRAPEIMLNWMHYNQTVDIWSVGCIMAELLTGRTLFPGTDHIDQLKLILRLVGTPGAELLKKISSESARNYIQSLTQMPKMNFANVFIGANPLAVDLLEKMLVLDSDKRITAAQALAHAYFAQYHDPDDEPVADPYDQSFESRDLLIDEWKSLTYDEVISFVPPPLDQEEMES

[13] = biological target: Serine/threonine-protein kinase Nek4 (Homo sapiens) (UniProt P51957); experiment: Inhibition of human NEK4 at 1 uM using MBP as substrate in presence of [gamma33P]-ATP by HotSpot assay relative to control
[14] = biological target: Mitogen-activated protein kinase 14 (Homo sapiens) (UniProt Q16539); experiment: Inhibition of human P38alpha T106M mutant at 1 uM using poly (Glu, Tyr)4:1 as substrate in presence of [gamma33P]-ATP by HotSpot assay relative to control
[15] = biological target: [Pyruvate dehydrogenase (acetyl-transferring)] kinase isozyme 1, mitochondrial (Homo sapiens) (UniProt Q15118); experiment: Inhibition of human PDK1 at 1 uM using MBP as substrate in presence of [gamma33P]-ATP by HotSpot assay relative to control
[16] = biological target: cGMP-dependent protein kinase 1 (Homo sapiens) (UniProt Q13976); experiment: Inhibition of human PKG1b at 1 uM using LRRASLG as substrate in presence of [gamma33P]-ATP by HotSpot assay relative to control
Sequence of cGMP-dependent protein kinase 1 (Homo sapiens) (Q13976 whole entry): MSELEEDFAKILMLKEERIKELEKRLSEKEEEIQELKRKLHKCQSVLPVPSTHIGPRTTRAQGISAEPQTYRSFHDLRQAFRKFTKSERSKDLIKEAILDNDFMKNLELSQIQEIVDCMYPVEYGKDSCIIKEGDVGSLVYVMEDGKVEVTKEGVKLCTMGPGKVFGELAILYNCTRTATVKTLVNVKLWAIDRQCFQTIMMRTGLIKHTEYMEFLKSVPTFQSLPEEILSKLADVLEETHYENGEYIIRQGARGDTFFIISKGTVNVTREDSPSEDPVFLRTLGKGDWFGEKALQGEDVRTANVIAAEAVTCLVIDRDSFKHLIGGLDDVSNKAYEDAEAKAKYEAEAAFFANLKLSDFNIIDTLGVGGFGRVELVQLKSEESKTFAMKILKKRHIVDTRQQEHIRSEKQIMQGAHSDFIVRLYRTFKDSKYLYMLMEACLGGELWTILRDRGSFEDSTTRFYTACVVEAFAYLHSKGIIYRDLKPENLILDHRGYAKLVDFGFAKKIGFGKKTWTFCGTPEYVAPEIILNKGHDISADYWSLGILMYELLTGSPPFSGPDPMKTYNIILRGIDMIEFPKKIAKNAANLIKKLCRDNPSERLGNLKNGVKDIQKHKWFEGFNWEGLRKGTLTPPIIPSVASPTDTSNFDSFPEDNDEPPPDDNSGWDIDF

[17] = biological target: Serine/threonine-protein kinase N2 (Homo sapiens) (UniProt Q16513); experiment: Inhibition of human PKN2 at 1 uM using LRRASLG as substrate in presence of [gamma33P]-ATP by HotSpot assay relative to control
[18] = biological target: Serine/threonine-protein kinase 33 (Homo sapiens) (UniProt Q9BYT3); experiment: Inhibition of human STK33 at 1 uM using MBP as substrate in presence of [gamma33P]-ATP by HotSpot assay relative to control
[19] = biological target: Wee1-like protein kinase (Homo sapiens) (UniProt P30291); experiment: Inhibition of human WEE1 at 1 uM using CDK1 (D146N)/cyclin B1 as substrate in presence of [gamma33P]-ATP by HotSpot assay relative to control
KARPAS-299 = experiment: Antitumor activity against ALK positive human KARPAS-299 cells xenografted in SCID beige mouse assessed as tumor growth inhibition at 25 mg/kg, po administered once daily for 14 days relative to control; assay type: functional; conditions: time 14 day
NCI-H2228 = experiment: Antitumor activity against ALK positive human NCI-H2228 cells xenografted in CB-17/SCID orthotopic brain tumor mouse model assessed as median survival time at 25 mg/kg po administered daily and measured after 64 days (reference value: 28 days); assay type: functional; conditions: time 64 day
BaF3 = experiment: Antitumor activity against mouse BaF3 cells expressing native EML4-ALK implanted in mouse assessed as tumor regression at 25 mg/kg, po administered once daily and measured after 8 days relative to control; assay type: functional; conditions: time 8 day
[20] = Average plasma concentration in CB-17/SCID mouse implanted with mouse BaF3 cells expressing EML4-ALK G1202R mutant at 50 mg/kg, po administered once daily for 7 days by LC-MS/MS analysis; assay type: ADME, organism-based; conditions: in vivo, 168 h, time 7 day
[21] = system: EML4-ALK (Homo sapiens), Q9UM73+Q9HC35 [UNDEFINED MUTATION]; conditions: BaF3, time 3-5 weeks
[22] = system: EML4-ALK (Homo sapiens), Q9UM73+Q9HC35 [F1174C]; conditions: BaF3, dose 500.0 nmol/L, time 3-5 weeks
[23] = system: EML4-ALK (Homo sapiens), Q9UM73+Q9HC35 [F1174V]; conditions: BaF3, dose 500.0 nmol/L, time 3-5 weeks

For `COc1cc(N2CCC(N3CCN(C)CC3)CC2)ccc1Nc1ncc(Cl)c(Nc2ccccc2P(C)(C)=O)n1` [BRIGATINIB], which inhibition [1] is on record?
Its inhibition is less than 90%.

What about the IC50 [2] of the same compound?
Its IC50 is 3.5 nM.

And the IC50 [3]?
The IC50 was 4.4 nM.

What about the IC50 [4] of the same compound?
Its IC50 is 242 nM.

And the IC50 (Aurora kinase B)?
The IC50 was greater than 1000 nM.

What about the IC50 (Ephrin type-A receptor 1) of the same compound?
The IC50 was greater than 1000 nM.

And the inhibition [5]?
The inhibition was less than 90%.

What about the inhibition [6] of the same compound?
Its inhibition is less than 90%.

And the inhibition [7]?
The inhibition was less than 90%.

And the inhibition [8]?
The inhibition was less than 90%.

What about the inhibition [9] of the same compound?
The inhibition was less than 90%.

What about the inhibition [10] of the same compound?
The inhibition was less than 90%.

And the inhibition [11]?
Its inhibition is less than 90%.

What about the inhibition [12] of the same compound?
Its inhibition is less than 90%.

And the inhibition [13]?
Its inhibition is less than 90%.

And the inhibition [14]?
Its inhibition is less than 90%.

And the inhibition [15]?
The inhibition was less than 90%.

And the inhibition [16]?
Its inhibition is less than 90%.

What about the inhibition [17] of the same compound?
Its inhibition is less than 90%.

What about the inhibition [18] of the same compound?
The inhibition was less than 90%.

And the inhibition [19]?
The inhibition was less than 90%.

What about the TGI (KARPAS-299) of the same compound?
The TGI was 87%.

And the MSD (NCI-H2228)?
The MSD was 62 days.

And the Activity (BaF3)?
The Activity was 100%.

And the Cave [20]?
The Cave was 5.151 µM.

What about the IC90 [21] of the same compound?
The IC90 was 416 nM.

And the inhibition [22]?
The inhibition was “Active”.

And the inhibition [23]?
The inhibition was “Active”.
